In brackets after ≈: the same amount, converted by molar mass. Several values for one entry are separate records, joined by “and”; a condition that tells them apart may be missing. Identical values can stand only once. Like-named read-outs stand apart in the source and are kept apart here.
Assays:
[1] = Pharmacokinetics of Compound 1 after single bolus IV injection in beagle dogs (plasma); format: in vivo; conditions: for AUC(0-inf) / C0 / clearance / MRT inf / Vd: iv; for MRT inf: read-out: MRT0-∞
Protocol: Male CD-1 mice, Sprague Dawley rats, and beagle dogs were administered Compound 1 intravenously. Compound 1 was preformulated as a sterile isotonic solution of 10 mg/mL in PBS. Specifically, male CD-1 mice were administered a single bolus IV injection of the Compound at 10 mg/kg, via a bolus IV injection into the tail vein. Two blood samples per mouse were collected by retro-orbital puncture into tubes containing the anticoagulant K2EDTA prior to dosing and at 0.033, 0.083, 0.25, 0.5, 1 and 24 hours. Rats were administered Compound 1 at 10 mg/kg via a bolus IV injection into the tail vein. Twelve blood samples per rat were collected via a jugular vein cannula into tubes containing the anticoagulant K2EDTA at various timepoints (i.e., 0.033, 0.083, 0.25, 0.5, 1, 2, 4, 6, 8, 10, 12, and 24 hours). Male beagle dogs were administered Compound 1 at 10 mg/kg through a temporary percutaneous catheter placed in a peripheral vein. Whole blood samples (0.5 mL) were collected from each dog prior to dosing and at 0.033, 0.083, 0.25, 0.5, 1, 2, 4, 6, 8, and 24 hours via direct venipuncture of a jugular or cephalic vein into tubes containing the anticoagulant K2EDTA. A sparse sampling method was employed to conserve animals and provide the best data possible from fewer mice. Samples were centrifuged, and plasma was collected and transferred into a new tube and frozen at −80° C. until they were analyzed.
Blood, urine, and kidney samples collected over 24 hours were analyzed for Compound 1 levels using LC-MS/MS. Method performance was acceptable in the concentration ranges necessary to determine plasma levels. Compound 1 plasma concentrations were determined by comparing Compound 1 concentration in the sample to a standard curve derived from LC-MS/MS measurements of the analyte. The standard curve fit was linear with a 1/x^2 weighting.
Bioanalytical data analyses were carried out using Analyst software (version 1.4.1, Applied Biosystems, Toronto, ON, Canada). […] PK parameters were determined by noncompartmental analysis using WinNonLin. Plasma protein binding was determined using equilibrium dialysis. In vitro stability was determined using commercially available plasma, microsomes and hepatocytes.

[2] = system: Acinetobacter spp. (ACB); experiment: MIC, CLSI broth microdilution, worldwide isolates: Acinetobacter spp.; format: cell-based
Text: In the first study, a total of 235 isolates were collected from medical centers worldwide and tested for susceptibility to Compound 1 and comparator agents by CLSI broth microdilution methods. […] Non-ENT GN pathogens included WT P. aeruginosa (PSA) and Acinetobacter spp. (ACB), and carbapenem (CARB)-R strains, including those with MBL and OXA enzymes, SA and coagulase-negative staphylococci (CoNS) included oxacillin-susceptible (MSSA/MS-CoNS) and —R (MRSA/MR-CoNS) strains.
Minimum inhibitory concentrations (MIC) were determined by reference Clinical and Laboratory Standards Institute (CLSI) broth microdilution methods per M7-A7 [2006]. Briefly, serial two-fold dilutions of Compound 1 and comparator AGs (together, “the test compounds”) were prepared at 2× concentration in appropriate diluent. The dilutions were mixed in 96-well assay plates with bacterial inoculum. Bacteria were suspended in sterile saline and added to each assay plate to obtain a final concentration of 5.5×10^5 CFU/mL. The plates were incubated at 35° C. for 20 hours in ambient air. […] After incubation, assay plates were read using a microtiter plate reader at 600 nm.

[3] = system: A. baumannii (AB); experiment: MIC, broth microdilution, Brooklyn hospital isolates: A. baumannii; format: cell-based
Protocol: (§1) In another study, the activity of Compound 1 against a collection of contemporary Gram-negative bacteria was determined. Unique patient isolates of P. aeruginosa (PA), A. baumannii (AB), K. pneumoniae (KP), E. coli (EC), and Enterobacter spp. (EB) from prior surveys at 16 Brooklyn, N.Y. hospitals were selected based on resistance patterns. The majority of isolates were fingerprinted by automated ribotyping. MICs were performed by broth microdilution. PCR was used to identify aminoglycoside-modifying enzymes (AMEs) in AB and KP and the KPC gene in Enterobacteriaceae (EN). The expression of the efflux genes mexA, C, E and X in PA, and adeB in AB was assessed by real-time RT-PCR.

[4] = system: K. pneumoniae (KP); experiment: MIC, broth microdilution, Brooklyn hospital isolates: K. pneumoniae; format: cell-based; conditions: Klebsiella pneumoniae; KP (n = 71)
Protocol: as §1

[5] = Prediction of human plasma levels and half-life of Compound 1 from mouse, rat and dog data (allometric scaling); conditions: humans
Protocol: The PK profile of Compound 1 supports use of high doses in short infusions, administered once-daily to achieve high Cmax and AUC, which are important for both efficacy and safety.
In the phase 1 clinical studies described herein, Compound 1 was administered over a short infusion time period of 10 minutes. Based upon allometric scaling of the mouse, rat and dog nonclinical data, the Cmax associated with longer infusion time periods was predicted, as summarized in Table 21. As shown, longer infusion time periods are associated with lower Cmax, resulting in a lower Cmax to AUC ratio.

[6] = beagle dogs, 10 mg/kg single bolus IV, Mean ± SD, 10 mg/kg
[7] = male, beagle, dog, plasma, 10 mg/kg, beagle dogs, 10 mg/kg single bolus IV, Dog 601
[8] = male, beagle, dog, plasma, 10 mg/kg, beagle dogs, 10 mg/kg single bolus IV, Dog 602
[9] = male, beagle, dog, plasma, 10 mg/kg, beagle dogs, 10 mg/kg single bolus IV, Dog 603
[10] = male, beagle, dog, plasma, 10 mg/kg, beagle dogs, 10 mg/kg single bolus IV, Mean ± SD
[11] = Acinetobacter baumannii, AB (n = 38)

CN[C@@H]1[C@@H](O)[C@@H](O[C@@H]2[C@@H](O)[C@H](O[C@H]3OC(CNCCO)=CC[C@H]3N)[C@@H](N)C[C@H]2NC(=O)[C@@H](O)CCN)OC[C@]1(C)O [Compound 1, 6′-(2-Hydroxy-ethyl)-1-(4-amino-2(S)-hydroxy-butyryl)-sisomicin]
HL Lambda Z ([1]; beagle dogs, 10 mg/kg single bolus IV, Dog 601): 1.18 h | HL Lambda Z ([1]; beagle dogs, 10 mg/kg single bolus IV, Dog 602): 1.24 h | HL Lambda Z ([1]; beagle dogs, 10 mg/kg single bolus IV, Dog 603): 1.23 h | AUC0-∞ [1, 6]: 82.6 ± 11.5 µg·h/mL | HL Lambda Z [1, 6]: 1.22 h and 1.22 ± 0.03 h | half-life ([1]; male, beagle, dog, plasma, intravenous, 10 mg/kg, dogs, read-out: t½ (renal clearance) (converted)): ~1 h | AUC(0-inf) [1, 7]: 69.4 µg·h/mL | C0 [1, 7]: 134 µg/mL | clearance [1, 7]: 0.144 L/h/kg | MRT inf [1, 7]: 1.26 h | Vd ([1]; male, beagle, dog, plasma, 10 mg/kg, beagle dogs, 10 mg/kg single bolus IV, Dog 601, read-out: Vss): 0.181 L | AUC(0-inf) [1, 8]: 88.7 µg·h/mL | C0 [1, 8]: 119 µg/mL | clearance [1, 8]: 0.113 L/h/kg | MRT inf [1, 8]: 1.32 h | Vd ([1]; male, beagle, dog, plasma, 10 mg/kg, beagle dogs, 10 mg/kg single bolus IV, Dog 602, read-out: Vss): 0.149 L | AUC(0-inf) [1, 9]: 89.7 µg·h/mL | C0 [1, 9]: 106 µg/mL | clearance [1, 9]: 0.111 L/h/kg | MRT inf [1, 9]: 1.45 h | Vd ([1]; male, beagle, dog, plasma, 10 mg/kg, beagle dogs, 10 mg/kg single bolus IV, Dog 603, read-out: Vss): 0.162 L | AUC(0-inf) [1, 10]: 83 µg·h/mL | C0 [1, 10]: 120 µg/mL | clearance [1, 10]: 0.123 L/h/kg | MRT inf [1, 10]: 1.34 h | Vd ([1]; male, beagle, dog, plasma, 10 mg/kg, beagle dogs, 10 mg/kg single bolus IV, Mean ± SD, read-out: Vss): 0.164 ± 0.016 L | Vd ([1]; male, beagle, dog, plasma, 10 mg/kg, beagle dogs, 10 mg/kg single bolus IV, mean, read-out: volume of distribution at steady state): 0.164 L/kg | Cumulative % inhibited at Cmpd. MIC 1 ([2]; ACB (30)): 10.0% | Cumulative % inhibited at Cmpd. MIC 2 ([2]; ACB (30)): 23.3% | Cumulative % inhibited at Cmpd. MIC 4 ([2]; ACB (30)): 26.7% | Cumulative % inhibited at Cmpd. MIC 8 ([2]; ACB (30)): 66.7% | Cumulative % inhibited at Cmpd. MIC 16 ([2]; ACB (30)): 70.0% | Cumulative % inhibited at Cmpd. MIC 32 ([2]; ACB (30)): 90.0% | Cumulative % inhibited at Cmpd. MIC 64 ([2]; ACB (30)): 100.0% | Cumulative % inhibited at Cmpd. MIC ≦0.5 ([2]; ACB (30)): 3.3% | Cumulative % inhibited at Cmpd. MIC 1 ([2]; ACB, CARB-R (20)): 15.0% | Cumulative % inhibited at Cmpd. MIC 2 ([2]; ACB, CARB-R (20)): 30.0% | Cumulative % inhibited at Cmpd. MIC 4 ([2]; ACB, CARB-R (20)): 30.0% | Cumulative % inhibited at Cmpd. MIC 8 ([2]; ACB, CARB-R (20)): 70.0% | Cumulative % inhibited at Cmpd. MIC 16 ([2]; ACB, CARB-R (20)): 75.0% | Cumulative % inhibited at Cmpd. MIC 32 ([2]; ACB, CARB-R (20)): 95.0% | Cumulative % inhibited at Cmpd. MIC 64 ([2]; ACB, CARB-R (20)): 100.0% | Cumulative % inhibited at Cmpd. MIC ≦0.5 ([2]; ACB, CARB-R (20)): 5.0% | Cumulative % inhibited at Cmpd. MIC 1 ([2]; ACB, WT (10)): 0.0% | Cumulative % inhibited at Cmpd. MIC 2 ([2]; ACB, WT (10)): 10.0% | Cumulative % inhibited at Cmpd. MIC 4 ([2]; ACB, WT (10)): 20.0% | Cumulative % inhibited at Cmpd. MIC 8 ([2]; ACB, WT (10)): 60.0% | Cumulative % inhibited at Cmpd. MIC 16 ([2]; ACB, WT (10)): 60.0% | Cumulative % inhibited at Cmpd. MIC 32 ([2]; ACB, WT (10)): 80.0% | Cumulative % inhibited at Cmpd. MIC 64 ([2]; ACB, WT (10)): 100.0% | Cumulative % inhibited at Cmpd. MIC ≦0.5 ([2]; ACB, WT (10)): 0.0% | MIC50 ([2]; Acinetobacter, ACB isolates): 8 mg/L (≈ 13.5 µM) | MIC90 ([2]; Acinetobacter, ACB isolates): 32 mg/L (≈ 54 µM) | isolates with Compound 1 MICs >8 ([3]; AB isolates with increased expression of adeB): 69% | isolates with Compound 1 MICs>4 ([3]; AB isolates with the AME aacA4): 93% | isolates with Compound 1 MICs >8 ([3]; AB isolates without increased expression of adeB): 13% | isolates with Compound 1 MICs>4 ([3]; AB isolates without the AME aacA4): 50% | MIC50 [3, 11]: 8 mg/L (≈ 13.5 µM) | MIC90 [3, 11]: > 16 mg/L | MIC ([3]; Acinetobacter baumannii, AB isolates without AMEs, read-out: MICs achieved by some isolates): > 16 mg/L | MIC50 [4]: 0.5 mg/L (≈ 0.844 µM) | MIC90 [4]: 1 mg/L (≈ 1.69 µM) | predicted Cmax with longer infusion time periods [5]: lower Cmax

Reference: patent publication US20120208781A1, “AMINOGLYCOSIDE DOSING REGIMENS” (Achaogen, Inc., priority 2009, published 2012)
